Laboratory results taken from patent publication EP0672658B1, “Antithrombotic agents” (priority 1994, dated 1995).
Where a name gives a salt, the structure may show the parent alone.

Key:
Human Thrombin = Human Thrombin (Homo sapiens, UniProt P00734); assay: biochemical; details: read-out: Kass Human Thrombin (converted)
factor Xa = factor Xa (Homo sapiens, UniProt P00742); assay: biochemical; details: read-out: Kass Xa (converted)
Experimental: (§1) By substantially following the procedures described above for human thrombin, and using other human blood coagulation system serine proteases and proteases of the fibrinolytic system with the appropriate chromogenic substrates, identified below, selectivity of the compounds of the present invention with respect to the coagulation factor serine proteases and with respect to the fibrinolytic system serine proteases are evaluated as well as their substantial lack of interference with serine proteases of the fibrinolytic system. Thrombin inhibitors preferably should spare fibrinolysis induced by urokinase, tissue plasminogen activator (t-PA) and streptokinase. This would be important to the therapeutic use of such agents as an adjunct to streptokinase, t-PA or urokinase thrombolytic therapy and to the use of such agents as an endogenous fibrinolysis-sparing (with respect to t-PA and urokinase) antithrombotic agent. In addition to the lack of interference with the amidase activity of the fibrinolytic proteases, such fibrinolytic system sparing can be studied by the use of human plasma clots and their lysis by the respective fibrinolytic plasminogen activators.
Human factors X, Xa, IXa, XIa, and XIIa are purchased from Enzyme Research Laboratories, South Bend, Indiana; human urokinase from Leo Pharmaceuticals, Denmark; and recombinant activated Protein C (aPC) is prepared at Eli Lilly and Co. substantially according to U.S. Patent 4,981,952. Chromogenic substrates: N-Benzoyl-Ile-Glu-Gly-Arg-p-nitroanilide (for factor Xa); N-Cbz-D-Arg-Gly-Arg-p-nitroanilide (for factor IXa assay as the factor Xa substrate); Pyroglutamyl-Pro-Arg-p-nitroanilide (for Factor XIa and for aPC); H-D-Pro-Phe-Arg-p-nitroanilide (for factor XIIa); and Pyroglutamyl-Gly-Arg-p-nitroanilide (for urokinase); are purchased from KabiVitrum, Stockholm, Sweden, or from Midwest Biotech, Fishers, Indiana. Bovine trypsin is purchased from Worthington Biochemicals, Freehold, New Jersey, and human plasma kallikrein from Kabi Vitrum, Stockholm, Sweden. Chromogenic substrate H-D-Pro-Phe-Arg-p-nitroanilide for plasma kallikrein is purchased from Kabi Vitrum, Stockholm, Sweden. N-Benzoyl-Phe-Val-Arg-p-nitroanilide, the substrate for human thrombin and for trypsin, is synthesized according to procedures described above for the compounds of the present invention, using known methods of peptide coupling from commercially available reactants or purchased from Midwest Biotech, Fishers, Indiana.

Trypsin = target: T1, Trypsin (Bos taurus, UniProt P00760); assay: biochemical; parameters: species or system Bovine; details: read-out: Kass Trypsin (converted)
T1 sequence (P00760 24-246): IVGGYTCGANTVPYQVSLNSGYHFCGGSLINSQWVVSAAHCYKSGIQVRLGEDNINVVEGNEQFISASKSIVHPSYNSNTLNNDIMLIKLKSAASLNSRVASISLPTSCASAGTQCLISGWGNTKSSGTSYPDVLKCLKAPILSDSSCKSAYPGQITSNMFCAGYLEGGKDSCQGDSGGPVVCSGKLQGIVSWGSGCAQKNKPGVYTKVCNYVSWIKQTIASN
Procedure, shortened: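 Bovine trypsin and human factor Xa amidase activity measured chromogenically, following the human thrombin procedure. Substrates: N-Benzoyl-Ile-Glu-Gly-Arg-p-nitroanilide for factor Xa and N-Benzoyl-Phe-Val-Arg-p-nitroanilide for trypsin. Used for selectivity profiling.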

Plasmin = target: T2, Plasmin (Homo sapiens, UniProt P00747); assay: biochemical; details: read-out: Kass Plasmin (converted)
T2 construct: Human plasmin is purchased; purchased Boehringer Mannheim, Indianapolis, Indiana
Experimental: as §1
(§2) Human plasmin is purchased from Boehringer Mannheim, Indianapolis, Indiana; nt-PA is purchased as single chain activity reference from American Diagnostica, Greenwich, Connecticut; modified-t-PA6 (mt-PA6) is prepared at Eli Lilly and Company by procedure known in the art (See, Burck, et al., J. Biol. Chem., 265, […] (1990). Plasmin chromogenic substrate H-D-Val-Leu-Lys-p-nitroanilide and tissue plasminogen activator (t-PA) substrate H-D-Ile-Pro-Arg-p-nitroanilide are purchased from Kabi Vitrum, Stockholm, Sweden.

t-PA = t-PA (Homo sapiens, UniProt P00750); assay: biochemical; details: read-out: Kass t-PA (converted)
Experimental: as §1, §2

human or animal plasma [1] = assay: Anticoagulation determination in plasma: thrombin time (TT); assay type: biochemical; details: concentration doubling thrombin time
Procedure, shortened: (§3)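 Compounds spiked over a concentration range into citrated human, dog or rat plasma. PT used Thromboplastin-C; APTT used Actin reagent 120 s then 0.02 M CaCl2; TT used bovine thrombin 10 NIH units/mL. Concentration doubling clotting time estimated by linear extrapolation.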

human or animal plasma [2] = assay: Anticoagulation determination in plasma: activated partial thromboplastin time (APTT); assay type: biochemical; details: concentration doubling activated partial thromboplastin time
Procedure, shortened: as §3

human or animal plasma [3] = assay: Anticoagulation determination in plasma: prothrombin time (PT); assay type: biochemical; details: concentration doubling prothrombin time
Procedure, shortened: as §3

Chain of factor Xa (P00742 235-488 limits assumed): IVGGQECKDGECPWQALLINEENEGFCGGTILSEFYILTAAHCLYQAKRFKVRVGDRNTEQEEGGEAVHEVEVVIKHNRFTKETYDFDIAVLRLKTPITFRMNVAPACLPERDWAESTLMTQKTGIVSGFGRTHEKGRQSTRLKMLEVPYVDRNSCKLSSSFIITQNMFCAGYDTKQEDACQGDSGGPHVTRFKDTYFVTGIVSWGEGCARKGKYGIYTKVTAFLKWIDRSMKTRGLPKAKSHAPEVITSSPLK
Chain of factor Xa (P00742 41-179 partner limits assumed): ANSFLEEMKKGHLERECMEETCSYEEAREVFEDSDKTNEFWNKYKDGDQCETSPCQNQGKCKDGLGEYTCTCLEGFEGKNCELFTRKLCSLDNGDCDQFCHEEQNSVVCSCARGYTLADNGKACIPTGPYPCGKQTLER
Chain of t-PA (P00750 36-562): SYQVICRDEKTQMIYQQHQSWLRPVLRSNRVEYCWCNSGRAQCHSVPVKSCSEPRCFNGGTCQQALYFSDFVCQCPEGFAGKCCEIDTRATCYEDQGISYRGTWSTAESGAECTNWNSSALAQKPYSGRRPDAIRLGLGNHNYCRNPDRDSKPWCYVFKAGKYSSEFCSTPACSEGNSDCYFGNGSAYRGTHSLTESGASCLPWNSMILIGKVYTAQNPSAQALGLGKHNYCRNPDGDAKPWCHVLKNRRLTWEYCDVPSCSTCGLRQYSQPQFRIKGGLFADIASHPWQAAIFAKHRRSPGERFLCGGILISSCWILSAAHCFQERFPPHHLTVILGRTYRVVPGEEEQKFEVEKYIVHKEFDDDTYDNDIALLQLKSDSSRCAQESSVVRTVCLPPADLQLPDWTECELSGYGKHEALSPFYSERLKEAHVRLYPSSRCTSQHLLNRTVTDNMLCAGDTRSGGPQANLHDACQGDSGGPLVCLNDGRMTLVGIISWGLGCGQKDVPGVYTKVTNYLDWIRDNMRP
T2 sequence (P00747 581-810 limits assumed): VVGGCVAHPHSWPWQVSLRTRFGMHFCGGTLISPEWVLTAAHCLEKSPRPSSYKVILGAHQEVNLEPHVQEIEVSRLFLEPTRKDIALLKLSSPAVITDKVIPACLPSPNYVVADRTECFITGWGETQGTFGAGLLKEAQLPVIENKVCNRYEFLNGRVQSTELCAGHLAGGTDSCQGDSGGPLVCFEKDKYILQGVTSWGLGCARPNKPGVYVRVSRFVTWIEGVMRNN
T2 sequence (P00747 97-580 partner limits assumed): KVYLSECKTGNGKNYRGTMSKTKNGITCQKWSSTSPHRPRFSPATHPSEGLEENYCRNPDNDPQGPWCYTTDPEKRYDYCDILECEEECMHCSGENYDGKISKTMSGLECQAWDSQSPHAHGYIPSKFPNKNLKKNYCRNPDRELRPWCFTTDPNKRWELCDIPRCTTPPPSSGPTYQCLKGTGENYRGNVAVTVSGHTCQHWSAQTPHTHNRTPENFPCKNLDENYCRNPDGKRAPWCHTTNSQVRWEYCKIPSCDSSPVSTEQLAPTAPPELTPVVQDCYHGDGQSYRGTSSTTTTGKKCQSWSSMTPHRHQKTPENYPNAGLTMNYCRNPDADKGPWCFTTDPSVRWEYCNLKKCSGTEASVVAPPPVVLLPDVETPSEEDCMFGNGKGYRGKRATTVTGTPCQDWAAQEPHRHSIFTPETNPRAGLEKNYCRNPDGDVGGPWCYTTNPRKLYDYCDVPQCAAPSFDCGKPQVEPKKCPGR

Row | Compound | Kd (Human Thrombin) [µM] | Kd (factor Xa) [µM] | Kd (Trypsin) [µM] | Kd (Plasmin) [µM] | Kd (t-PA) [µM] | Human Plasma Anticoagulation 2x Clotting time (ng/mL) TT (human or animal plasma [1]) | Human Plasma Anticoagulation 2x Clotting time (ng/mL) APTT (human or animal plasma [2]) | Human Plasma Anticoagulation 2x Clotting time (ng/mL) PT (human or animal plasma [3])
1 | CCS(=O)(=O)N[C@@H](C(=O)N1[C@H](C(=O)NCc2ccc(C(=N)N)cc2)C[C@@H]2CCCC[C@@H]21)c1ccccc1 (relative stereo) [Example 44, EtSO2-Phg-cis-Ohi-p-NHCH2C6H4C(NH)NH2. HCl] | 0.00159 | 1.52 | 0.000385 | 0.556 | 25 | 4. ng/mL | 100 ng/mL | 170 ng/mL
2 | N=C(N)c1cccc(CNC(=O)[C@@H]2CCCN2C(=O)[C@H](N)Cc2ccccc2)c1 [Example 16, D-Phe-Pro-m-NHCH2C6H4C(NH)NH2·0.75HCl] | 1.03 | 196 | 50 | 588 | 833 | 650 ng/mL | 8,600 ng/mL | 8,500 ng/mL
3 | N=C(N)c1ccc(CNC(=O)[C@@H]2CCCN2C(=O)[C@@H]2NCC[C@@H]3CCCC[C@@H]32)cc1 [Example 18, 1-Piq-Pro-p-NHCH2C6H4C(NH)NH2·2HCl] | 0.00556 | 4.76 | 0.0714 | 11.8 | 106 | 7 ng/mL | 79 ng/mL | 170 ng/mL
4 | CCS(=O)(=O)N[C@H](Cc1ccccc1)C(=O)N1CCC[C@H]1C(=O)NCc1ccc(C(=N)N)cc1 [Example 23, EtSO2-D-Phe-Pro-p-NHCH2-C6H4C(=NH)NH2·HCl] | 0.0013 | 7.14 | 0.0476 | 2.27 | 3.23 | 7 ng/mL | 86 ng/mL | 120 ng/mL
5 | N=C(N)c1cccc(CNC(=O)[C@@H]2CCCN2C(=O)[C@@H]2NCC[C@@H]3CCCC[C@@H]32)c1 [Example 25, D-1-Piq-Pro-m-NHCH2-C6H4C(=NH)NH2·HCl] | 2.33 | > 1000 | 100 | > 1000 | 100 | 1,430 ng/mL | 34,600 ng/mL | 40,400 ng/mL
6 | N=C(N)c1cccc(CCNC(=O)[C@@H]2CCCN2C(=O)[C@@H]2NCC[C@@H]3CCCC[C@@H]32)c1 [Example 29, 1-Piq-Pro-m-NHCH2CH2-C6H4C(=NH)NH2·2HCl] | 1.32 | 50 | 50 | > 1000 | > 1000 | 750 ng/mL | 9,800 ng/mL | 15.800 ng/mL

Continued, in another order:

Row | Kd (Human Thrombin) [µM] | Kd (factor Xa) [µM] | Kd (Trypsin) [µM] | Kd (Plasmin) [µM] | Kd (t-PA) [µM] | Compound | Human Plasma Anticoagulation 2x Clotting time (ng/mL) TT (human or animal plasma [1]) | Human Plasma Anticoagulation 2x Clotting time (ng/mL) APTT (human or animal plasma [2]) | Human Plasma Anticoagulation 2x Clotting time (ng/mL) PT (human or animal plasma [3])
7 | 47.6 | 7140 | 17900 | 21700 | > 1000 | Nc1ccc(CCNC(=O)[C@@H]2CCCN2C(=O)[C@H](N)Cc2ccccc2)cc1 [Example 14, D-Phe-Pro-p-NHCH2CH2C6H4NH2·HCl] | 21,000 ng/mL | – | –
8 | 0.0303 | 20.4 | 0.263 | 41.7 | 294 | N=C(N)c1ccc(CNC(=O)[C@@H]2CCCN2C(=O)[C@H]2CCCCN2)cc1 [Example 17, D-hPro-Pro-p-NHCH2C6H4C(NH)NH2·HCl] | 26 ng/mL | 370 ng/mL | 400 ng/mL
9 | 0.0909 | 7.14 | 0.0244 | 6.25 | 179 | N=C(N)c1ccc(CNC(=O)[C@@H]2CCCN2C(=O)[C@H]2C[C@H]3CCCC[C@H]3CN2)cc1 [Example 19, D-3-Piq-Pro-p-NHCH2C6H4C(NH)NH2·3HCl] | 58 ng/mL | 300 ng/mL | 540 ng/mL
10 | 0.278 | 1.61 | 1.04 | 32.3 | 500 | N=C(N)c1ccc(CNC(=O)CN(CCc2ccccc2)C(=O)[C@H]2CCCCN2)cc1 [Example 21, D-hPro-N(PhCH2CH2)Gly-p-NHCH2-C6H4C(NH)NH2·2HCl] | 160 ng/mL | 2,000 ng/mL | 1,000 ng/mL
11 | 0.333 | 23.3 | 0.118 | 23.8 | 250 | N=C(N)c1ccc(CNC(=O)[C@@H]2C[C@H](Oc3ccccc3)CN2C(=O)[C@H]2CCCCN2)cc1 [Example 22, D-hPro-Pro(4-cis-PhO)-p-NHCH2-C6H4C(NH)NH2·2HCl] | 170 ng/mL | 2,300 ng/mL | 1,000 ng/mL
12 | 1.28 | > 1000 | 33.3 | > 1000 | > 1000 | CCS(=O)(=O)N[C@H](Cc1ccccc1)C(=O)N1CCC[C@H]1C(=O)NCc1cccc(C(=N)N)c1 [Example 24, EtSO2-D-Phe-Pro-m-NHCH2-C6H4C(=NH)NH2·HCl] | 1,000 ng/mL | 25,900 ng/mL | 25,000 ng/mL
13 | 3.45 | 50 | 50 | > 1000 | 50 | CCS(=O)(=O)N[C@H](Cc1ccccc1)C(=O)N1CCC[C@H]1C(=O)NCCc1cccc(C(=N)N)c1 [Example 27, EtSO2-D-Phe-Pro-m-NHCH2CH2-C6H4C(=NH)NH2·HCl] | 1,940 ng/mL | 27,800 ng/mL | 27,000 ng/mL
14 | 1.05 | 100 | 9.09 | > 1000 | > 1000 | N=C(N)c1ccc(CCNC(=O)[C@@H]2CCCN2C(=O)[C@@H]2NCC[C@@H]3CCCC[C@@H]32)cc1 [Example 28, 1-Piq-Pro-p-NHCH2CH2-C6H4C(=NH)NH2·2HCl] | 520 ng/mL | 8,100 ng/mL | 8,300 ng/mL
15 | 1.82 | 50 | 33.3 | > 1000 | > 1000 | CCS(=O)(=O)N[C@H](Cc1ccccc1)C(=O)N1CCC[C@H]1C(=O)NCCCc1ccc(C(=N)N)cc1 [Example 30, EtSO2-D-Phe-Pro-p-NHCH2CH2CH2-C6H4C(=NH)NH2·HCl] | 1,000 ng/mL | 14,000 ng/mL | 14,400 ng/mL
